# Experimental data from the supplement of paper PMC8967900.
# Test system: HPB-ALL
# Test: selective drug sensitivity score (sDSS, relative to normal bone marrow) (sDSS (score)); higher = more potent and effective on the cell line relative to normal bone marrow cells
# Settings: 72 h
# 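Note: ALL cell lines in 384-well plates, five doses spanning 10,000-fold, each plate scaled between vehicle and 100 µmol/L benzalkonium chloride controls, sDSS an adapted area-under-curve metric.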
row,SMILES,selective drug sensitivity score
1,Cn1cc(C[C@@H](N)C(=O)O)c2ccccc21 [1-methyl-D-tryptophan] (top concentration 5000 nM),-0.62
2,CN(C)C[C@@H]1CCn2cc(c3ccccc32)C2=C(C(=O)NC2=O)c2cn(c3ccccc23)CCO1 [Ruboxistaurin] (top concentration 10000 nM),-5.14
3,CCNC(=O)CCC/C=C\C[C@@H]1[C@@H](/C=C/[C@@H](O)CCc2ccccc2)[C@H](O)C[C@@H]1O [Bimatoprost] (top concentration 5500 nM),0.5
4,O=c1[nH]cc(F)c(=O)[nH]1 [Fluorouracil] (top concentration 10000 nM),-0.24
5,CC1(C)NC(=O)N(c2ccc([N+](=O)[O-])c(C(F)(F)F)c2)C1=O [Nilutamide] (top concentration 10000 nM),-0.48
6,CNC(=O)c1ccc2cc([C@@]3(O)CCn4cncc43)ccc2c1 [Orteronel] (top concentration 10000 nM),0
7,CCC(C)(C)C(=O)O[C@H]1C[C@@H](C)C=C2C=C[C@H](C)[C@H](CC[C@@H]3C[C@@H](O)CC(=O)O3)[C@H]21 [Simvastatin] (top concentration 10000 nM),0.38
8,C[C@]12CC[C@H](O)CC1=CC[C@@H]1[C@@H]2CC[C@]2(C)C(c3cccnc3)=CC[C@@H]12 [Abiraterone] (top concentration 5000 nM),-0.12

# Test system: CCRF-HSB2
# Test: as above
# Settings: 72 h
row,SMILES,selective drug sensitivity score
1,Cn1cc(C[C@@H](N)C(=O)O)c2ccccc21 [1-methyl-D-tryptophan] (top concentration 5000 nM),-0.62
2,CN(C)C[C@@H]1CCn2cc(c3ccccc32)C2=C(C(=O)NC2=O)c2cn(c3ccccc23)CCO1 [Ruboxistaurin] (top concentration 10000 nM),1.36
3,CCNC(=O)CCC/C=C\C[C@@H]1[C@@H](/C=C/[C@@H](O)CCc2ccccc2)[C@H](O)C[C@@H]1O [Bimatoprost] (top concentration 5500 nM),0
4,O=c1[nH]cc(F)c(=O)[nH]1 [Fluorouracil] (top concentration 10000 nM),-0.64
5,CC1(C)NC(=O)N(c2ccc([N+](=O)[O-])c(C(F)(F)F)c2)C1=O [Nilutamide] (top concentration 10000 nM),-0.48
6,CNC(=O)c1ccc2cc([C@@]3(O)CCn4cncc43)ccc2c1 [Orteronel] (top concentration 10000 nM),0
7,CCC(C)(C)C(=O)O[C@H]1C[C@@H](C)C=C2C=C[C@H](C)[C@H](CC[C@@H]3C[C@@H](O)CC(=O)O3)[C@H]21 [Simvastatin] (top concentration 10000 nM),0.08
8,C[C@]12CC[C@H](O)CC1=CC[C@@H]1[C@@H]2CC[C@]2(C)C(c3cccnc3)=CC[C@@H]12 [Abiraterone] (top concentration 5000 nM),-0.12

# Test system: TMD5
# Test: as above
# Settings: 72 h
row,SMILES,selective drug sensitivity score
1,Cn1cc(C[C@@H](N)C(=O)O)c2ccccc21 [1-methyl-D-tryptophan] (top concentration 5000 nM),-0.62
2,CN(C)C[C@@H]1CCn2cc(c3ccccc32)C2=C(C(=O)NC2=O)c2cn(c3ccccc23)CCO1 [Ruboxistaurin] (top concentration 10000 nM),0.46
3,CCNC(=O)CCC/C=C\C[C@@H]1[C@@H](/C=C/[C@@H](O)CCc2ccccc2)[C@H](O)C[C@@H]1O [Bimatoprost] (top concentration 5500 nM),0
4,O=c1[nH]cc(F)c(=O)[nH]1 [Fluorouracil] (top concentration 10000 nM),-0.64
5,CC1(C)NC(=O)N(c2ccc([N+](=O)[O-])c(C(F)(F)F)c2)C1=O [Nilutamide] (top concentration 10000 nM),3.42
6,CNC(=O)c1ccc2cc([C@@]3(O)CCn4cncc43)ccc2c1 [Orteronel] (top concentration 10000 nM),0
7,CCC(C)(C)C(=O)O[C@H]1C[C@@H](C)C=C2C=C[C@H](C)[C@H](CC[C@@H]3C[C@@H](O)CC(=O)O3)[C@H]21 [Simvastatin] (top concentration 10000 nM),5.78
8,C[C@]12CC[C@H](O)CC1=CC[C@@H]1[C@@H]2CC[C@]2(C)C(c3cccnc3)=CC[C@@H]12 [Abiraterone] (top concentration 5000 nM),-0.12

# Test system: MOLT-16
# Test: as above
# Settings: 72 h
row,SMILES,selective drug sensitivity score
1,Cn1cc(C[C@@H](N)C(=O)O)c2ccccc21 [1-methyl-D-tryptophan] (top concentration 5000 nM),-0.62
2,CN(C)C[C@@H]1CCn2cc(c3ccccc32)C2=C(C(=O)NC2=O)c2cn(c3ccccc23)CCO1 [Ruboxistaurin] (top concentration 10000 nM),-0.34
3,CCNC(=O)CCC/C=C\C[C@@H]1[C@@H](/C=C/[C@@H](O)CCc2ccccc2)[C@H](O)C[C@@H]1O [Bimatoprost] (top concentration 5500 nM),0
4,O=c1[nH]cc(F)c(=O)[nH]1 [Fluorouracil] (top concentration 10000 nM),6.36
5,CC1(C)NC(=O)N(c2ccc([N+](=O)[O-])c(C(F)(F)F)c2)C1=O [Nilutamide] (top concentration 10000 nM),2.72
6,CNC(=O)c1ccc2cc([C@@]3(O)CCn4cncc43)ccc2c1 [Orteronel] (top concentration 10000 nM),0
7,CCC(C)(C)C(=O)O[C@H]1C[C@@H](C)C=C2C=C[C@H](C)[C@H](CC[C@@H]3C[C@@H](O)CC(=O)O3)[C@H]21 [Simvastatin] (top concentration 10000 nM),2.18
8,C[C@]12CC[C@H](O)CC1=CC[C@@H]1[C@@H]2CC[C@]2(C)C(c3cccnc3)=CC[C@@H]12 [Abiraterone] (top concentration 5000 nM),1.28

# Test system: KASUMI-2
# Test: as above
# Settings: 72 h
row,SMILES,selective drug sensitivity score
1,Cn1cc(C[C@@H](N)C(=O)O)c2ccccc21 [1-methyl-D-tryptophan] (top concentration 5000 nM),0.38
2,CN(C)C[C@@H]1CCn2cc(c3ccccc32)C2=C(C(=O)NC2=O)c2cn(c3ccccc23)CCO1 [Ruboxistaurin] (top concentration 10000 nM),-3.34
3,CCNC(=O)CCC/C=C\C[C@@H]1[C@@H](/C=C/[C@@H](O)CCc2ccccc2)[C@H](O)C[C@@H]1O [Bimatoprost] (top concentration 5500 nM),2.5
4,O=c1[nH]cc(F)c(=O)[nH]1 [Fluorouracil] (top concentration 10000 nM),1.56
5,CC1(C)NC(=O)N(c2ccc([N+](=O)[O-])c(C(F)(F)F)c2)C1=O [Nilutamide] (top concentration 10000 nM),-0.48
6,CNC(=O)c1ccc2cc([C@@]3(O)CCn4cncc43)ccc2c1 [Orteronel] (top concentration 10000 nM),4.6
7,CCC(C)(C)C(=O)O[C@H]1C[C@@H](C)C=C2C=C[C@H](C)[C@H](CC[C@@H]3C[C@@H](O)CC(=O)O3)[C@H]21 [Simvastatin] (top concentration 10000 nM),-0.72
8,C[C@]12CC[C@H](O)CC1=CC[C@@H]1[C@@H]2CC[C@]2(C)C(c3cccnc3)=CC[C@@H]12 [Abiraterone] (top concentration 5000 nM),-0.12
